Results on 14 compounds are retold here after patent US20250026743A1, “HETEROARYL-LINKED ANALOGS AS MGLU5 NEGATIVE ALLOSTERIC MODULATORS AND METHODS OF MAKING AND USING THE SAME” (Vanderbilt University, priority 2021, published 2025).

One may read the IC50 as the concentration that inhibits the measured activity by half.

Where two headings read alike, the source gives them in different places.

Data set [1] concerns N-methyl-D-aspartate (NMDA) receptor. The settings on record: at higher concentrations; cited from earlier work.
The target of another data set is mGlu4 (Homo sapiens, UniProt Q14833). The note with it: cited from earlier work.
Sequence of mGlu4 (Q14833 33-912): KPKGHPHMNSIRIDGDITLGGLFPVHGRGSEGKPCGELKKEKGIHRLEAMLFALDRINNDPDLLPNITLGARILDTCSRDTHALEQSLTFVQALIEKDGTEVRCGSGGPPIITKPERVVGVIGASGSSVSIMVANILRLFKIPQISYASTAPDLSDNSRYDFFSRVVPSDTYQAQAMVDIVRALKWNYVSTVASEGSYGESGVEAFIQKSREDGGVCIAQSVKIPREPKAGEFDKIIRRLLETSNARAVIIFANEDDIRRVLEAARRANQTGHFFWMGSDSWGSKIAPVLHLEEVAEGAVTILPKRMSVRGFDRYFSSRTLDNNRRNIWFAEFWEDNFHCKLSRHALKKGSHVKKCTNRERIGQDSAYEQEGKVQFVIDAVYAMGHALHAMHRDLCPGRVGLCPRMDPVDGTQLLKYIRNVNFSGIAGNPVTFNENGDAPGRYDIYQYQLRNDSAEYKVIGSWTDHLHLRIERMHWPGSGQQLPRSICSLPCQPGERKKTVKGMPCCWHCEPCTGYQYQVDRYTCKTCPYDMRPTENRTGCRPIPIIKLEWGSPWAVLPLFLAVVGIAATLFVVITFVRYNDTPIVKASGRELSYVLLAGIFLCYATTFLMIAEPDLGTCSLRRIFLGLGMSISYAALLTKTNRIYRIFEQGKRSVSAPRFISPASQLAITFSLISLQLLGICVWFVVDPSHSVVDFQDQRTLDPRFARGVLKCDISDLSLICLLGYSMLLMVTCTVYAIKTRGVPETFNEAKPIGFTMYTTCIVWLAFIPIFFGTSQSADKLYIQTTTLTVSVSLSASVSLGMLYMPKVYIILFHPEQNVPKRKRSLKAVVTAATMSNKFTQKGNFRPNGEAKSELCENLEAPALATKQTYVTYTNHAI
A further data set addresses T1, cytochrome P450 1A2 (Homo sapiens, UniProt P05177).
T1 sequence (P05177 1-516): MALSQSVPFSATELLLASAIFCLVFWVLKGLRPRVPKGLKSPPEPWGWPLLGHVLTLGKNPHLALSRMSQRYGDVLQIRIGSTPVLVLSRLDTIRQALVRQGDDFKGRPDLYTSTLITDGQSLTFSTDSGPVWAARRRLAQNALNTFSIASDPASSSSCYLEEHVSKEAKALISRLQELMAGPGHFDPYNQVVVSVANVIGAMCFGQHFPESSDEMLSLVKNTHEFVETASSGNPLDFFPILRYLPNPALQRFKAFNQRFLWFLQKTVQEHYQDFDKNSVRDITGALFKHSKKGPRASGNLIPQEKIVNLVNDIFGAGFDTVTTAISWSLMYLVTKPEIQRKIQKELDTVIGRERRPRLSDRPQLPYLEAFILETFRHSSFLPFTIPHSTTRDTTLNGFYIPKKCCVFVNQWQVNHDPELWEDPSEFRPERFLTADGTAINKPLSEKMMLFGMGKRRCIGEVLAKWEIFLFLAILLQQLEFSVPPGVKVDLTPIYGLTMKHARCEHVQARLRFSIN
The note with it: cited from earlier work.

For data set [2] the following is noted: intravenous administration, rhesus monkeys; cited from earlier work.
A further data set has as its target T2, hmGlu5 (Homo sapiens, UniProt P41594).
T2 construct: expressed in transfected cells; host or cells: HEK 293A
The data set is described as follows: mGlu5 Ca2+ flux assay in HEK 293A cells (negative allosteric modulation of glutamate EC80 response). Format: cell-based. The settings on record: for remaining activity at 30 µM: HEK293-A, read-out: hmGlu5 NAM Emin (%); for IC50: HEK 293A cells, Ca2+ flux, glutamate EC80, >10,000 = decrease without plateau, read-out: hmGlu5 NAM IC50. An outline of the steps:
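HEK 293A cells stably expressing rat or human mGlu5, Fluo-4 AM loaded; compound added 2.3 min before glutamate EC20, then EC80; Ca2+ fluorescence peak amplitudes (F/F0) normalised to glutamate max. IC50 from 4-parameter logistic fit, 10-point 1:3 curves, top 30 μM; partial NAMs plateau above 10% Glu Max.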

T2 sequence (P41594 21-1212): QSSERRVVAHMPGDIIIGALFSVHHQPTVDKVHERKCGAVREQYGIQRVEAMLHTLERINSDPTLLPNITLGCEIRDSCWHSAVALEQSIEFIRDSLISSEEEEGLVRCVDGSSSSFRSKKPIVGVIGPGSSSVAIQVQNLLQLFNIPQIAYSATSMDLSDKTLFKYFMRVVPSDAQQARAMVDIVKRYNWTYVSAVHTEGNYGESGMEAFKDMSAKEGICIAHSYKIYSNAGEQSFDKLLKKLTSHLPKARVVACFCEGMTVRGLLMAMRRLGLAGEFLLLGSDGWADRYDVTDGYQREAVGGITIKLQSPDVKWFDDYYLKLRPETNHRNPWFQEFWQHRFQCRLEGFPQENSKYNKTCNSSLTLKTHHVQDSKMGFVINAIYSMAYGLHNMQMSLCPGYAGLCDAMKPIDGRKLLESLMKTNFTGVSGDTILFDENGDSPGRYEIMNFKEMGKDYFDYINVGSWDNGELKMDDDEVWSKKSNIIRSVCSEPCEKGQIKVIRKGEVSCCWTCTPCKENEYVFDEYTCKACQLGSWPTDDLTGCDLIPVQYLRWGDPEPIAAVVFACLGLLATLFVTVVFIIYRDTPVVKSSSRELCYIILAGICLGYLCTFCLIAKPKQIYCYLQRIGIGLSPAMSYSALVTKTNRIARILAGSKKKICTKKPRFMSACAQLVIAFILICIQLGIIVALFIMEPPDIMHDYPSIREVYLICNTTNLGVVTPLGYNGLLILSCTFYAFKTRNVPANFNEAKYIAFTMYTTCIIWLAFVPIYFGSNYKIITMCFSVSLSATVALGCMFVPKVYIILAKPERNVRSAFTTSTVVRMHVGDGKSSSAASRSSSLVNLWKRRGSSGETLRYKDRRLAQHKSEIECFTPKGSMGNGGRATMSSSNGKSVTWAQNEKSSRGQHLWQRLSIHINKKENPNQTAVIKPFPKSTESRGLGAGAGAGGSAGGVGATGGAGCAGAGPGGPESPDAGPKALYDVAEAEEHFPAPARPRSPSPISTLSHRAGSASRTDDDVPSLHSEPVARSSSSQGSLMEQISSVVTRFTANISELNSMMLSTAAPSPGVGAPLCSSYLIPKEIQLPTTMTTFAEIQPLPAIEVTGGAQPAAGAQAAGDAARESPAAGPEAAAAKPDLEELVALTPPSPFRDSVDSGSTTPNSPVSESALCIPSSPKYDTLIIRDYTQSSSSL

As for `Cc1cccc(C#Cc2ccccc2)n1` [MPEP, 2-methyl-6-(phenylethynyl) pyridine], the “inhibition of NMDA receptor activity” value in data set [1] is recorded as “directly inhibit”. The “modulation of mGlu4” value at mGlu4 was “positive allosteric modulator”.

As to `Cc1nc(C#Cc2cccnc2)cs1` [MTEP, 3-[(2-methyl-1,3-thiazol-4-yl)ethynyl]pyridine], the “inhibition of cytochrome P450 1A2” value at cytochrome P450 1A2 is “potent inhibitor”. In data set [2], the clearance result is recorded as “efficiently cleared”.

Consider `Cc1nc(-c2noc(-c3ccc(F)cn3)n2)cc(-c2cc(Cl)cc(C#N)c2)c1F` [Compound 70, 3-chloro-5-(3-fluoro-6-(5-(5-fluoropyridin-2-yl)-1,2,4-oxadiazol-3-yl)-2-methylpyridin-4-yl)benzonitrile], for which, on hmGlu5 (% Glu max at 30 μM), the remaining activity at 30 µM is 3%. Also, at hmGlu5, the IC50 turned out to be 206 nM.

As for `Cc1cncc(-c2nc(-c3cc(-c4cnccc4C)c(F)c(C)n3)no2)c1` [Compound 87, 3-(5′-fluoro-4,6′-dimethyl-[3,4′-bipyridin]-2′-yl)-5-(5-methylpyridin-3-yl)-1,2,4-oxadiazole], the remaining activity at 30 µM on hmGlu5 (% Glu max at 30 μM) came out at 13%. In addition, the IC50 at hmGlu5 is 4290 nM.

On to `Cc1cc(F)nc(-c2cc(-c3noc(-c4ccc(F)cn4)n3)nc(C)c2F)c1` [Compound 66, 3-(5′,6-difluoro-4,6′-dimethyl-[2,4′-bipyridin]-2′-yl)-5-(5-fluoropyridin-2-yl)-1,2,4-oxadiazole], for which, on hmGlu5 (% Glu max at 30 μM), the remaining activity at 30 µM is 9%. The IC50 at hmGlu5 is 1890 nM.

Consider `Cc1ccncc1-c1cc(-c2noc(-c3cccc(Cl)n3)n2)nc(C)c1F` [Compound 21, 5-(6-chloropyridin-2-yl)-3-(5′-fluoro-4,6′-dimethyl-[3,4′-bipyridin]-2′-yl)-1,2,4-oxadiazole], for which, on hmGlu5 (% Glu max at 30 μM), the remaining activity at 30 µM came to 4%. In addition, the IC50 on hmGlu5 turned out to be 493 nM.

Consider `Cc1ccncc1-c1cc(-c2nnc(-c3ccc(F)cn3)o2)nc(C)c1F` [Compound 42, 2-(5′-fluoro-4,6′-dimethyl-[3,4′-bipyridin]-2′-yl)-5-(5-fluoropyridin-2-yl)-1,3,4-oxadiazole], for which the remaining activity at 30 µM at hmGlu5 (% Glu max at 30 μM) amounted to 2%. Also, the IC50 at hmGlu5 amounted to 375 nM.

Take `Cc1ccncc1-c1cc(-c2noc(-c3cccnn3)n2)nc(C)c1F` [Compound 92, 3-(5′-fluoro-4,6′-dimethyl-[3,4′-bipyridin]-2′-yl)-5-(pyridazin-3-yl)-1,2,4-oxadiazole]: on hmGlu5 (% Glu max at 30 μM), the remaining activity at 30 µM worked out at 74%. Moreover, the IC50 on hmGlu5 is greater than 10000 nM.

Regarding `Cc1cccc(-c2nc(-c3cc(-c4cnccc4C)c(F)c(C)n3)no2)c1` [Compound 28, 3-(5′-fluoro-4,6′-dimethyl-[3,4′-bipyridin]-2′-yl)-5-(m-tolyl)-1,2,4-oxadiazole], the remaining activity at 30 µM at hmGlu5 (% Glu max at 30 μM) worked out at 2%. In addition, the IC50 on hmGlu5 amounted to 69 nM.

Take `Cc1nc(-c2noc(-c3ccc(F)cn3)n2)cc(-c2cncc(C(F)(F)F)c2)c1F` [Compound 33, 3-(5′-fluoro-6′-methyl-5-(trifluoromethyl)-[3,4′-bipyridin]-2′-yl)-5-(5-fluoropyridin-2-yl)-1,2,4-oxadiazole]: at hmGlu5 (% Glu max at 30 μM), the remaining activity at 30 µM was 9%. The IC50 at hmGlu5 turned out to be 1020 nM.

On to `Cc1nc(-c2noc(-c3ccc(F)cn3)n2)cc(-c2cnn(C(F)F)c2)c1F` [Compound 7, 3-(4-(1-(difluoromethyl)-1H-pyrazol-4-yl)-5-fluoro-6-methylpyridin-2-yl)-5-(5-fluoropyridin-2-yl)-1,2,4-oxadiazole], for which, on hmGlu5 (% Glu max at 30 μM), the remaining activity at 30 µM was 2%. Besides, at hmGlu5, the IC50 was determined as 159 nM.

Take `Cc1nc(-c2nnc(-c3ccc(F)cn3)o2)cc(-c2cnn(C(F)F)c2)c1F` [Compound 74, 2-(4-(1-(difluoromethyl)-1H-pyrazol-4-yl)-5-fluoro-6-methylpyridin-2-yl)-5-(5-fluoropyridin-2-yl)-1,3,4-oxadiazole]: at hmGlu5 (% Glu max at 30 μM), the remaining activity at 30 µM was determined as 2%. Besides, the IC50 at hmGlu5 is 148 nM.

With `Cc1nc(-c2nnc(-c3cccnc3)o2)cc(-c2cncc(F)c2)c1F` [Compound 80, 2-(5,5′-difluoro-6′-methyl-[3,4′-bipyridin]-2′-yl)-5-(pyridin-3-yl)-1,3,4-oxadiazole], at hmGlu5, the remaining activity at 30 µM is 58% and the IC50 was 3340 nM.

Turning to `Cc1nc(-c2noc(-c3cccc(F)c3)n2)cc(-c2cncc(F)c2)c1F` [Compound 38, 3-(5,5′-difluoro-6′-methyl-[3,4′-bipyridin]-2′-yl)-5-(3-fluorophenyl)-1,2,4-oxadiazole], the remaining activity at 30 µM on hmGlu5 (% Glu max at 30 μM) was 14%. In addition, the IC50 on hmGlu5 was 2410 nM.
